Measurements reported in patent publication US20040029823A1, “Antisense oligonucleotide compositions and methods for the modulation of JNK proteins” (priority 1997, published 2004).

Experiments:
MDA-MB-231 tumors = assay: MDA-MB-231 human breast adenocarcinoma tumors in nude mice; type: in vivo; details: 25 mg/kg intravenous once daily
Excerpt: Approximately 5×10^6 breast adenocarcinoma cells (cell line MDA-MB-231; American Type Culture Collection, Richmond, Va., No. ATCC HTB-26) were implanted subcutaneously in the right inner thigh of nude mice (n=6 for each of three sets of mice). Oligonucleotides ISIS 15346 (JNK1, SEQ ID NO: 16) and 15353 (JNK2, SEQ ID NO: 31) were suspended in saline and administered once daily to two sets of mice on the first day the tumor volume was about […]. A saline-only (0.9% NaCl) solution was given to a third set of animals as a control. Oligonucleotides were given by intravenous injection at a dosage of 25 mg/kg. Tumor size was measured and tumor volume was calculated on days 12, 19, 26 and 33 following tumor cell inoculation.

[1] = system: TNFa-induced JNK activity; assay: TNFa-induced JNK activity in HUVEC (GST-c-Jun phosphorylation); type: cell-based, human; details: 100 nM oligonucleotide, compared to a control oligonucleotide
HUVEC = assay: Apoptosis in HUVEC (percent hypodiploid cells, flow cytometry); type: cell-based, human; details: HUVEC

G^ST^SC^SC^SG^SG^SG^SC^SC^SA^SG^SG^SC^SC^SA^SA^SA^SG^ST^SC (antisense GTCCGGGCCAGGCCAAAGTC; DNA, all phosphorothioate, methylation of C not given here) [ISIS 15353, JNK2 gapmer: P═S, 2′-MOE wings; P═S, 2-deoxy core]
Mean Tumor Volume (MDA-MB-231 tumors; Day 12 after tumor cell inoculation): 0.122 cm^3 | Mean Tumor Volume (MDA-MB-231 tumors; Day 19): 0.230 cm^3 | Mean Tumor Volume (MDA-MB-231 tumors; Day 26): 0.358 cm^3 | Mean Tumor Volume (MDA-MB-231 tumors; Day 33): 0.762 cm^3 | inhibition of TNFa-induced JNK activity [1]: ~55% | percent hypodiploid cells (a measure of apoptosis) (HUVEC; Oligo + Cyclohexamide): 27% | percent hypodiploid cells (a measure of apoptosis) (HUVEC; Oligo + TNFa (10 ng/ml)): 32% | percent hypodiploid cells (a measure of apoptosis) (HUVEC; Oligo + z-VAD.fmk): 17% | percent hypodiploid cells (a measure of apoptosis) (HUVEC; Oligo alone): 23%
